In patent US10399940B2, “Substituted pyrrolidines and methods of use” (AbbVie S.à.r.l., priority 2016, dated 2019):
Like-named read-outs stand apart in the source and are kept apart here.

Target: T1, F508delCFTR (Homo sapiens, UniProt P13569, DEL508-508)
T1 construct: expressed in transfected cells; host or cells: CFBE41o- (human lung derived epithelial cell line), doxycycline-inducible expression
Experiment: Cell Surface Expression-Horse Radish Peroxidase (CSE-HRP) assay
Type: cell-based
Conditions: CFBE41o-F508delCFTR-HRP cells; for Maximum % activity (with co-corrector): with co-corrector (2 μM); for Maximum % activity (with co-corrector) / Maximum % activity (without co-corrector): normalized to on-plate positive control, highest concentration 20 μM
Method in brief: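 Surface F508delCFTR-HRP was read by luminol luminescence after 18–24 h compound exposure at 33 °C, without or with 2 μM co-corrector. Doses were eight 3-fold steps from 20 μM, in doxycycline-induced (0.5 μg/mL, 72 h) CFBE41o- cells. % activity was scaled to the on-plate 2 μM positive control minus DMSO; EC50 came from a variable-slope sigmoid fit.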

[1] = test compound without co-corrector, 18-24 hours at 33° C., read-out: EC50 (without co-corrector)
[2] = with co-corrector (2 μM of 3-[(2R,4R)-4-({[1-(2,2-difluoro-1,3-benzodioxol-5-yl)cyclopropyl]carbonyl}amino)-7-methoxy-3,4-dihydro-2H-chromen-2-yl]benzoic acid), read-out: EC50 (with co-corrector)

T1 sequence (P13569 with tags, fused parts or gaps DEL508-508): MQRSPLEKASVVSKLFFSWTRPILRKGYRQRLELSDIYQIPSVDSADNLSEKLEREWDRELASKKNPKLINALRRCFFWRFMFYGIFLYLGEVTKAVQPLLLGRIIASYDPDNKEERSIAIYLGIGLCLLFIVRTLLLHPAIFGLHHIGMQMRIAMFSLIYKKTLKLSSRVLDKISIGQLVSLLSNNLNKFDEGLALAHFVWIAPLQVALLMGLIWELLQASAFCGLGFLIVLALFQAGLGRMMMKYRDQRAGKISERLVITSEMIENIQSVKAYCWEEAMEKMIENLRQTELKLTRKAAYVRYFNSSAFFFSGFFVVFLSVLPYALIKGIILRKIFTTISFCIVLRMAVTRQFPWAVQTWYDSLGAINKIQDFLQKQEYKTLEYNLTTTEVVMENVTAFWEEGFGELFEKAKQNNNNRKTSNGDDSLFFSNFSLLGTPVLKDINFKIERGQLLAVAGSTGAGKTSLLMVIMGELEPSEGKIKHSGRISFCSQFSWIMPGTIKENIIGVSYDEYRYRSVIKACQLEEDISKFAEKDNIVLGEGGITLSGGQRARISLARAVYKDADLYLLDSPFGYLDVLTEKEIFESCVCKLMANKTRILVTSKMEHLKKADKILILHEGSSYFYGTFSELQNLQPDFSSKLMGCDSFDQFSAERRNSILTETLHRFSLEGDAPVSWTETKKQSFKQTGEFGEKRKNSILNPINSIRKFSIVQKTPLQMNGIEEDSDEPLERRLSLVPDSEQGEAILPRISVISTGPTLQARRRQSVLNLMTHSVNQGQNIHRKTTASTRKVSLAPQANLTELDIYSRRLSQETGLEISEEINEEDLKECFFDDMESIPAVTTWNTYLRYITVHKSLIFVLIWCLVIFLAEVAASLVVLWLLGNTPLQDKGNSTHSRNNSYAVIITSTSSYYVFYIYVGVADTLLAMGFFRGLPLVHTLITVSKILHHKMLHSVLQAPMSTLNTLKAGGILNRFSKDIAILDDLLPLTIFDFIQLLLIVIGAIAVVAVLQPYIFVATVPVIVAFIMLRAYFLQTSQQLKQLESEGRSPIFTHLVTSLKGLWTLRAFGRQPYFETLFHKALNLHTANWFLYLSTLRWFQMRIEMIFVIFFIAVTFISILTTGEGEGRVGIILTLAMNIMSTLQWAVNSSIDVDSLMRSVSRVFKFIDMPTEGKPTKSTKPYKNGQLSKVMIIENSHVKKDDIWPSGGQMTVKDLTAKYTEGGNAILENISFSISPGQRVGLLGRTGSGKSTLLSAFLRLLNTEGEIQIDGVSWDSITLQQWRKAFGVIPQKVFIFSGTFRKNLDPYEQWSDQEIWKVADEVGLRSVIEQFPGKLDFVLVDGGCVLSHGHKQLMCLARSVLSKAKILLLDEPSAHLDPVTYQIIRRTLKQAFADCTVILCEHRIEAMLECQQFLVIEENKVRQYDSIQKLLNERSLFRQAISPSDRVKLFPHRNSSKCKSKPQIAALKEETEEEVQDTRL

| Compound | EC50 [1] [µM] | EC50 [2] [µM] | Maximum % activity (with co-corrector) | Maximum % activity (without co-corrector) |
| --- | --- | --- | --- | --- |
| COc1nc2ccccc2cc1CO[C@H]1[C@H](C(C)(C)C)[C@@H](C(=O)O)N(C(=O)[C@@H]2CCCO2)[C@H]1c1ccccc1C(C)C [Example 116, (2S,3R,4S,5S)-3-tert-butyl-4-[(2-methoxyquinolin-3-yl)methoxy]-1-[(2S)-oxolane-2-carbonyl]-5-[2-(propan-2-yl)phenyl]pyrrolidine-2-carboxylic acid] | 1 to 10 | 1 to 10 | +++ (≥350) | ++ (≥100 and <200) |
| COc1ncc(C(F)(F)F)cc1CO[C@H]1[C@H](C(C)(C)C)[C@@H](C(=O)O)N(C(=O)[C@@H]2CCCO2)[C@H]1c1cccc(C(C)C)c1 [Example 117, (2S,3R,4S,5S)-3-tert-butyl-4-{[2-methoxy-5-(trifluoromethyl)pyridin-3-yl]methoxy}-1-[(2S)-oxolane-2-carbonyl]-5-[3-(propan-2-yl)phenyl]pyrrolidine-2-carboxylic acid] | < 1 | < 1 | ++ (≥150 and <350) | + (<100) |
| COc1ncc(C(F)(F)F)cc1CO[C@H]1[C@H](C(C)(C)C)[C@@H](C(=O)O)N(C(=O)[C@@H]2CCCO2)[C@H]1c1cccc(Br)c1 [Example 118, (2S,3R,4S,5S)-5-(3-bromophenyl)-3-tert-butyl-4-{[2-methoxy-5-(trifluoromethyl)pyridin-3-yl]methoxy}-1-[(2S)-oxolane-2-carbonyl]pyrrolidine-2-carboxylic acid] | 1 to 10 | < 1 | +++ (≥350) | ++ (≥100 and <200) |
| COc1ncc(C(F)(F)F)cc1CO[C@H]1[C@H](C(C)(C)C)[C@@H](C(=O)O)N(C(=O)[C@@H]2CCCO2)[C@H]1c1cccc(Cl)c1 [Example 119, (2S,3R,4S,5S)-3-tert-butyl-5-(3-chlorophenyl)-4-{[2-methoxy-5-(trifluoromethyl)pyridin-3-yl]methoxy}-1-[(2S)-oxolane-2-carbonyl]pyrrolidine-2-carboxylic acid] | 1 to 10 | 1 to 10 | +++ (≥350) | ++ (≥100 and <200) |
| COc1ncc(C(F)(F)F)cc1CO[C@H]1[C@H](C(C)(C)C)[C@@H](C(=O)O)N(C(=O)[C@@H]2CCCO2)[C@H]1c1cccc(C2CC2)c1 [Example 120, (2S,3R,4S,5S)-3-tert-butyl-5-(3-cyclopropylphenyl)-4-{[2-methoxy-5-(trifluoromethyl)pyridin-3-yl]methoxy}-1-[(2S)-oxolane-2-carbonyl]pyrrolidine-2-carboxylic acid] | 1 to 10 | < 1 | ++ (≥150 and <350) | + (<100) |
| COc1ncc(C(F)(F)F)cc1CO[C@H]1[C@H](C(C)(C)C)[C@@H](C(=O)O)N(C(=O)[C@@H]2CCCO2)[C@H]1c1cccc(C(C)(C)C)c1 [Example 121, (2S,3R,4S,5S)-3-tert-butyl-5-(3-tert-butylphenyl)-4-{[2-methoxy-5-(trifluoromethyl)pyridin-3-yl]methoxy}-1-[(2S)-oxolane-2-carbonyl]pyrrolidine-2-carboxylic acid] | < 1 | < 1 | ++ (≥150 and <350) | + (<100) |
| COc1ncc(C(F)(F)F)cc1CO[C@@H]1[C@H](C(C)(C)C)[C@@H](C(=O)O)N(C(=O)[C@@H]2CCCO2)[C@H]1c1cccc(C(C)(C)C)c1 [Example 122, (2S,3R,4R,5S)-3-tert-butyl-5-(3-tert-butylphenyl)-4-{[2-methoxy-5-(trifluoromethyl)pyridin-3-yl]methoxy}-1-[(2S)-oxolane-2-carbonyl]pyrrolidine-2-carboxylic acid] | > 10 | > 10 | + (<150) | + (<100) |
